Laboratory results taken from PubChem BioAssay (NCI).
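The compound was tested at five concentrations on cells cultured in 96-well plates, with a 48-hour exposure period. The concentration for full growth arrest is given as TGI.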

Columns and labels:
Experiment in all cases: NCI-60 cell line screen, 48 h
IGROV1 ovarian = system: IGROV1 ovarian
BT-549 breast = system: BT-549 breast
U251 CNS = system: U251 CNS
HCC-2998 colon = system: HCC-2998 colon
786-0 renal = system: 786-0 renal
RXF 393 renal = system: RXF 393 renal
HCT-15 colon = system: HCT-15 colon
HT29 colon = system: HT29 colon
T-47D breast = system: T-47D breast
SK-MEL-5 melanoma = system: SK-MEL-5 melanoma
MDA-MB-435 = system: MDA-MB-435
NCI/ADR-RES ovarian = system: NCI/ADR-RES ovarian
ACHN renal = system: ACHN renal
PC-3 prostate = system: PC-3 prostate
HOP-92 NSCLC = system: HOP-92 NSCLC
NCI-H522 lung = system: NCI-H522 lung
OVCAR-5 ovarian = system: OVCAR-5 ovarian
UACC-62 melanoma = system: UACC-62 melanoma
SF-295 CNS = system: SF-295 CNS
OVCAR-8 ovarian = system: OVCAR-8 ovarian
UACC-257 melanoma = system: UACC-257 melanoma
LOX IMVI melanoma = system: LOX IMVI melanoma
MOLT-4 leukemia = system: MOLT-4 leukemia
MALME-3M melanoma = system: MALME-3M melanoma
EKVX NSCLC = system: EKVX NSCLC
HOP-62 NSCLC = system: HOP-62 NSCLC
MCF7 breast = system: MCF7 breast
UO-31 renal = system: UO-31 renal
A549 NSCLC = system: A549 NSCLC
SNB-19 CNS = system: SNB-19 CNS
SNB-75 CNS = system: SNB-75 CNS
TK-10 renal = system: TK-10 renal
KM12 colon = system: KM12 colon
SN12C renal = system: SN12C renal
A498 renal = system: A498 renal
HCT-116 colon = system: HCT-116 colon
SK-MEL-28 melanoma = system: SK-MEL-28 melanoma
SK-MEL-2 melanoma = system: SK-MEL-2 melanoma
SK-OV-3 ovarian = system: SK-OV-3 ovarian
M14 melanoma = system: M14 melanoma
CAKI-1 renal = system: CAKI-1 renal
MDA-MB-231 breast = system: MDA-MB-231 breast
NCI-H460 lung = system: NCI-H460 lung
MDA-N = system: MDA-N
NCI-H226 lung = system: NCI-H226 lung
COLO 205 colon = system: COLO 205 colon
DU-145 prostate = system: DU-145 prostate
OVCAR-3 ovarian = system: OVCAR-3 ovarian
RPMI-8226 leukemia = system: RPMI-8226 leukemia
NCI-H23 lung = system: NCI-H23 lung
SR leukemia = system: SR leukemia
OVCAR-4 ovarian = system: OVCAR-4 ovarian
HS 578T breast = system: HS 578T breast
SW-620 colon = system: SW-620 colon
SF-539 CNS = system: SF-539 CNS
SF-268 CNS = system: SF-268 CNS
K-562 leukemia = system: K-562 leukemia
CCRF-CEM leukemia = system: CCRF-CEM leukemia

SMILES: CCCCCC/C=C\CCCCCCCCCC1=CC(=O)C=C(OC)C1=O
- TGI (IGROV1 ovarian): 3.86 µM
- TGI (BT-549 breast): 13.1 µM
- TGI (U251 CNS): 13.6 µM
- TGI (HCC-2998 colon): 27 µM
- TGI (786-0 renal): 17 µM
- TGI (RXF 393 renal): 13.1 µM
- TGI (HCT-15 colon): 11.1 µM
- TGI (HT29 colon): 11.8 µM
- TGI (T-47D breast): 4.86 µM
- TGI (SK-MEL-5 melanoma): 5.54 µM
- TGI (MDA-MB-435): 13.8 µM
- TGI (NCI/ADR-RES ovarian): 19.1 µM
- TGI (ACHN renal): 11.6 µM
- TGI (PC-3 prostate): 11 µM
- TGI (HOP-92 NSCLC): 8.05 µM
- TGI (NCI-H522 lung): 4.58 µM
- TGI (OVCAR-5 ovarian): 17.8 µM
- TGI (UACC-62 melanoma): 16.9 µM
- TGI (SF-295 CNS): 13.2 µM
- TGI (OVCAR-8 ovarian): 12.5 µM
- TGI (UACC-257 melanoma): 9.11 µM
- TGI (LOX IMVI melanoma): 13.9 µM
- TGI (MOLT-4 leukemia): > 100 µM
- TGI (MALME-3M melanoma): 29.4 µM
- TGI (EKVX NSCLC): 12.5 µM
- TGI (HOP-62 NSCLC): 14.8 µM
- TGI (MCF7 breast): 15.3 µM
- TGI (UO-31 renal): 14 µM
- TGI (A549 NSCLC): 16.3 µM
- TGI (SNB-19 CNS): 20.1 µM
- TGI (SNB-75 CNS): 8.07 µM
- TGI (TK-10 renal): 18.8 µM
- TGI (KM12 colon): 19.2 µM
- TGI (SN12C renal): 14.4 µM
- TGI (A498 renal): 13.5 µM
- TGI (HCT-116 colon): 12.2 µM
- TGI (SK-MEL-28 melanoma): 25.7 µM
- TGI (SK-MEL-2 melanoma): 18.3 µM
- TGI (SK-OV-3 ovarian): 16 µM
- TGI (M14 melanoma): 16.2 µM
- TGI (CAKI-1 renal): 9.65 µM
- TGI (MDA-MB-231 breast): 18.4 µM
- TGI (NCI-H460 lung): 11.1 µM
- TGI (MDA-N): 21.8 µM
- TGI (NCI-H226 lung): 11.1 µM
- TGI (COLO 205 colon): 3.24 µM
- TGI (DU-145 prostate): 38 µM
- TGI (OVCAR-3 ovarian): 17.6 µM
- TGI (RPMI-8226 leukemia): 7.83 µM
- TGI (NCI-H23 lung): 12 µM
- TGI (SR leukemia): 20.2 µM
- TGI (OVCAR-4 ovarian): 9.22 µM
- TGI (HS 578T breast): 41.7 µM
- TGI (SW-620 colon): 17.5 µM
- TGI (SF-539 CNS): 6.74 µM
- TGI (SF-268 CNS): 19.3 µM

SMILES: NC(Cc1ccccc1)(C(=O)O)C(=O)O
- TGI (IGROV1 ovarian): > 100 µM
- TGI (BT-549 breast): > 100 µM
- TGI (U251 CNS): > 100 µM
- TGI (HCC-2998 colon): > 100 µM
- TGI (786-0 renal): > 100 µM
- TGI (RXF 393 renal): > 100 µM
- TGI (HCT-15 colon): > 100 µM
- TGI (HT29 colon): > 100 µM
- TGI (T-47D breast): > 100 µM
- TGI (SK-MEL-5 melanoma): > 100 µM
- TGI (MDA-MB-435): > 100 µM
- TGI (NCI/ADR-RES ovarian): > 100 µM
- TGI (ACHN renal): > 100 µM
- TGI (PC-3 prostate): > 100 µM
- TGI (HOP-92 NSCLC): > 100 µM
- TGI (NCI-H522 lung): > 100 µM
- TGI (OVCAR-5 ovarian): > 100 µM
- TGI (UACC-62 melanoma): > 100 µM
- TGI (SF-295 CNS): > 100 µM
- TGI (OVCAR-8 ovarian): > 100 µM
- TGI (UACC-257 melanoma): > 100 µM
- TGI (LOX IMVI melanoma): > 100 µM
- TGI (MOLT-4 leukemia): > 100 µM
- TGI (MALME-3M melanoma): > 100 µM
- TGI (EKVX NSCLC): > 100 µM
- TGI (HOP-62 NSCLC): > 100 µM
- TGI (MCF7 breast): > 100 µM
- TGI (UO-31 renal): > 100 µM
- TGI (A549 NSCLC): > 100 µM
- TGI (SNB-19 CNS): > 100 µM
- TGI (K-562 leukemia): > 100 µM
- TGI (TK-10 renal): > 100 µM
- TGI (KM12 colon): > 100 µM
- TGI (SN12C renal): > 100 µM
- TGI (A498 renal): > 100 µM
- TGI (HCT-116 colon): > 100 µM
- TGI (SK-MEL-28 melanoma): > 100 µM
- TGI (CCRF-CEM leukemia): > 100 µM
- TGI (SK-MEL-2 melanoma): > 100 µM
- TGI (SK-OV-3 ovarian): > 100 µM
- TGI (M14 melanoma): > 100 µM
- TGI (CAKI-1 renal): > 100 µM
- TGI (MDA-MB-231 breast): > 100 µM
- TGI (NCI-H460 lung): > 100 µM
- TGI (MDA-N): > 100 µM
- TGI (NCI-H226 lung): > 100 µM
- TGI (COLO 205 colon): > 100 µM
- TGI (DU-145 prostate): > 100 µM
- TGI (OVCAR-3 ovarian): > 100 µM
- TGI (RPMI-8226 leukemia): > 100 µM
- TGI (NCI-H23 lung): > 100 µM
- TGI (OVCAR-4 ovarian): > 100 µM
- TGI (HS 578T breast): > 100 µM
- TGI (SW-620 colon): > 100 µM
- TGI (SF-539 CNS): > 100 µM
- TGI (SF-268 CNS): > 100 µM
